Measurements taken from US20240294541A1, “COMPOUNDS CONSTITUTING C20-MODIFIED SALINOMYCIN DERIVATIVES, A METHOD FOR OBTAINING THE SAME, A COMPOSITION CONTAINING THE SAME AND A USE OF SAID COMPOUNDS” (FILECLO SPOLKA Z OGRANICZONA ODPOWIEDZIALNOSCIA, priority 2021, published 2024).
Where “and” joins values, the source holds several entries; their conditions need not be identical. Equal values may be shown once. Read-outs that look alike come from different tables or passages of the source.

Legend:
Format in all cases: cell-based
[1] = test system: NCI-H23 (human lung cancer); experiment: In vitro cytotoxicity, SRB assay, NCI-H23; conditions: 72 h with compound, SRB, n/a = non-active compound, read-out: NCI-H23 IC50
[2] = test system: A2780Cis (cisplatin-resistant human ovarian cancer); experiment: In vitro cytotoxicity, SRB assay, A2780Cis
[3] = test system: PLC/PRF/5 (human liver cancer); experiment: cells; conditions: for SI PLC/PRF/5: selectivity coefficient vs normal BALB/3T3 fibroblasts
[4] = test system: BALB/3T3 (normal mouse fibroblasts); experiment: In vitro cytotoxicity, SRB assay, normal BALB/3T3 fibroblasts
[5] = test system: SNU-16 (human gastric cancer); experiment: cells; conditions: for SI SNU-16: selectivity coefficient vs normal BALB/3T3 fibroblasts
[6] = test system: MIA PaCa-2 (human pancreatic cancer); experiment: cells; conditions: for SI MIA PaCa-2: selectivity coefficient vs normal BALB/3T3 fibroblasts
[7] = test system: Hs294T (human melanoma); experiment: cells; conditions: for SI Hs294T: selectivity coefficient vs normal BALB/3T3 fibroblasts
[8] = test system: A2780 (human ovarian cancer); experiment: In vitro cytotoxicity, SRB assay, A2780; conditions: 72 h with compound, SRB, n/a = non-active compound, read-out: A2780 IC50
[9] = test system: PFSK-1 (malignant primitive neuroectodermal tumour); experiment: In vitro cytotoxicity, SRB assay, PFSK-1; conditions: 72 h with compound, SRB, n/a = non-active compound, read-out: PFSK-1 IC50
[10] = test system: MV-4-11 (human biphenotypic leukaemia); experiment: In vitro cytotoxicity, MTT assay, MV-4-11
[11] = test system: NCI-H358 (human lung cancer); experiment: cells; conditions: for SI NCI-H358: selectivity coefficient vs normal BALB/3T3 fibroblasts
[12] = test system: A375 (human melanoma); experiment: In vitro cytotoxicity, SRB assay, A375; conditions: 72 h with compound, SRB, n/a = non-active compound, read-out: A375 IC50
[13] = test system: KG-1 (human acute myeloid leukaemia); experiment: In vitro cytotoxicity, MTT assay, KG-1; conditions: Homo sapiens; 72 h with compound, MTT; n/a = non-active compound
[14] = Table 4, PLC/PRF/5 human liver cancer cells, read-out: IC50 (nM) PLC/PRF/5
[15] = Table 4, BALB/3T3 normal mouse fibroblasts, read-out: IC50 (nM) BALB3T3 normal cells
[16] = Table 4, SNU-16 human gastric cancer cells, read-out: IC50 (nM) SNU-16
[17] = Table 4, MIA PaCa-2 human pancreatic cancer cells, read-out: IC50 (nM) MIA PaCa-2
[18] = Table 4, NCI-H358 human lung cancer cells, read-out: IC50 (nM) NCI-H358
[19] = Hs 294T, Table 4, Hs294T human melanoma cells, read-out: IC50 (nM) Hs294T
[20] = Homo sapiens, A2780cis, read-out: IC50 (nM) A2780Cis
[21] = Homo sapiens, MV4-11, read-out: IC50 (nM) MV4-11

SMILES	IC50 [3, 14] [nM]	IC50 [4, 15] [nM]	IC50 [5, 16] [nM]	IC50 [6, 17] [nM]	IC50 [11, 18] [nM]	IC50 [7, 19] [nM]	SI A2780Cis [2]	IC50 [2, 20] [nM]	SI PLC/PRF/5 ([3]; Table 4)	SI SNU-16 ([5]; Table 4)	SI MIA PaCa-2 ([6]; Table 4)	SI Hs294T ([7]; Table 4)	SI MV4-11 [10]	IC50 [10, 21] [nM]	SI NCI-H358 ([11]; Table 4)	also measured
N.N.[Cl][Pt][Cl] [Cisplatin, cisplatin, reference compound]	1580	1390	2330	2360	2550											IC50 [1]: 2320 nM; A2780Cis RI [2]: 14.6; IC50 ([2]; read-out: A2780Cis IC50): 2610 nM; IC50 ([2]; read-out: IC50 (nM) A2780Cis): 2610 nM and 2870 nM; IC50 ([3]; 72 h with compound, SRB, n/a = non-active compound, read-out: PLC/PRF/5 IC50): 1580 nM; IC50 ([4]; Table 5, BALB/3T3 normal mouse fibroblasts, read-out: IC50 (nM) BALB3T3 normal cells): 1390 nM; IC50 ([4]; normal cells, 72 h with compound, SRB, n/a = non-active compound, read-out: BALB/3T3 IC50): 1390 nM; IC50 ([5]; 72 h with compound, MTT, n/a = non-active compound, read-out: SNU-16 IC50): 2330 nM; IC50 ([6]; 72 h with compound, SRB, n/a = non-active compound, read-out: MIA PaCa-2 IC50): 2360 nM; IC50 ([7]; 72 h with compound, SRB, n/a = non-active compound, read-out: Hs294T IC50): 736 nM; IC50 ([7]; Table 4, Hs294T human melanoma cells, read-out: IC50 (nM) Hs294T): 736 nM; IC50 [8]: 178 nM; IC50 [9]: 1510 nM; IC50 ([10]; read-out: IC50 (nM) MV4-11): 166 nM; IC50 [12]: 410 nM
CC[C@@H](C(=O)[C@@H](C)[C@@H](O)[C@H](C)[C@@H]1O[C@@H]([C@@H](CC)C(=O)O)CC[C@@H]1C)[C@H]1O[C@]2(C=C[C@@H](O)[C@]3(CC[C@@](C)([C@H]4CC[C@](O)(CC)[C@H](C)O4)O3)O2)[C@H](C)C[C@@H]1C [FLC-00001 (SAL), Salinomycin]	504		145	304	600	2160										IC50 ([1]; Homo sapiens, NCI-H23): 356 nM; IC50 ([3]; Homo sapiens, PLC-PRF-5, 72 h with compound, SRB, n/a = non-active compound, read-out: PLC/PRF/5 IC50): 504 nM; IC50 ([5]; Homo sapiens, SNU-16, 72 h with compound, MTT, n/a = non-active compound, read-out: SNU-16 IC50): 145 nM; IC50 ([6]; Homo sapiens, MIA PaCa-2, 72 h with compound, SRB, n/a = non-active compound, read-out: MIA PaCa-2 IC50): 304 nM; IC50 ([7]; Homo sapiens, Hs 294T, 72 h with compound, SRB, n/a = non-active compound, read-out: Hs294T IC50): 2160 nM; IC50 ([8]; Homo sapiens, A2780): 120 nM; IC50 ([9]; Homo sapiens, PFSK-1): 336 nM; IC50 [13]: 429 nM; IC50 ([12]; Homo sapiens, A-375): 574 nM
CC[C@@H](C(=O)[C@@H](C)[C@@H](O)[C@H](C)[C@@H]1O[C@@H]([C@@H](CC)C(=O)O)CC[C@@H]1C)[C@H]1O[C@]2(C=C[C@@H](NC(=O)Nc3c(F)c(F)c(F)c(F)c3F)[C@]3(CC[C@@](C)([C@H]4CC[C@](O)(CC)[C@H](C)O4)O3)O2)[C@H](C)C[C@@H]1C [FLC-00428-1•Na]	7.85	244	114	36.9	57.3	173	56.0	4.36	31.1	2.1	6.6	1.4	182.9	1.34	4.27	
CC[C@@H](C(=O)[C@@H](C)[C@@H](O)[C@H](C)[C@@H]1O[C@@H]([C@@H](CC)C(=O)O)CC[C@@H]1C)[C@H]1O[C@]2(C=C[C@@H](NC(=O)C(=O)NCCCc3ccccc3)[C@]3(CC[C@@](C)([C@H]4CC[C@](O)(CC)[C@H](C)O4)O3)O2)[C@H](C)C[C@@H]1C [FLC-00458-1•Na]	84.4	727	323	61.9	368	1590	29.6	24.5	8.6	2.2	11.7	0.5	31.3	23.2	1.97	
CC[C@@H](C(=O)[C@@H](C)[C@@H](O)[C@H](C)[C@@H]1O[C@@H]([C@@H](CC)C(=O)O)CC[C@@H]1C)[C@H]1O[C@]2(C=C[C@@H](NC(=O)Nc3cccc(C(F)(F)F)c3)[C@]3(CC[C@@](C)([C@H]4CC[C@](O)(CC)[C@H](C)O4)O3)O2)[C@H](C)C[C@@H]1C [FLC-00385-1]	0.55	21.9	20.9	5.93	36.2	162	≈219.0	< 0.1	39.7	1.0	3.7	0.1	125.5	0.17	0.60	
CC[C@@H](C(=O)[C@@H](C)[C@@H](O)[C@H](C)[C@@H]1O[C@@H]([C@@H](CC)C(=O)O)CC[C@@H]1C)[C@H]1O[C@]2(C=C[C@@H](NC(=O)OCC(F)(F)F)[C@]3(CC[C@@](C)([C@H]4CC[C@](O)(CC)[C@H](C)O4)O3)O2)[C@H](C)C[C@@H]1C [FLC-00395-1•Na]							43.8	1.78	2.1	0.8	2.4	1.6	177.2	0.44	0.65	IC50 ([3]; Homo sapiens, PLC-PRF-5, read-out: IC50 (nM) PLC/PRF/5): 37.5 nM; IC50 ([4]; Mus musculus, BALB/3T3, read-out: IC50 (nM) BALB3T3 normal cells): 78 nM; IC50 ([5]; Homo sapiens, SNU-16, read-out: IC50 (nM) SNU-16): 104 nM; IC50 ([6]; Homo sapiens, MIA PaCa-2, read-out: IC50 (nM) MIA PaCa-2): 33.1 nM; IC50 ([7]; Homo sapiens, Hs 294T, read-out: IC50 (nM) Hs294T): 47.3 nM; IC50 ([11]; Homo sapiens, NCI-H358, read-out: IC50 (nM) NCI-H358): 121 nM
CC[C@@H](C(=O)[C@@H](C)[C@@H](O)[C@H](C)[C@@H]1O[C@@H]([C@@H](CC)C(=O)O)CC[C@@H]1C)[C@H]1O[C@]2(C=C[C@@H](NC(=O)OCCOC)[C@]3(CC[C@@](C)([C@H]4CC[C@](O)(CC)[C@H](C)O4)O3)O2)[C@H](C)C[C@@H]1C [FLC-00459-1•Na]	92.2	1070	535	78.3	531	786	30.7	34.7	11.6	2.0	13.6	1.4	31.8	33.6	2.01	
CC[C@@H](C(=O)[C@@H](C)[C@@H](O)[C@H](C)[C@@H]1O[C@@H]([C@@H](CC)C(=O)O)CC[C@@H]1C)[C@H]1O[C@]2(C=C[C@@H](NC(=O)OCCOCc3ccccc3)[C@]3(CC[C@@](C)([C@H]4CC[C@](O)(CC)[C@H](C)O4)O3)O2)[C@H](C)C[C@@H]1C [FLC-00451-1•Na]	42	204	126	14.7	307	542	96.0	2.13	4.9	1.6	13.9	0.4	127.9	1.6	0.67	
CC[C@@H](C(=O)[C@@H](C)[C@@H](O)[C@H](C)[C@@H]1O[C@@H]([C@@H](CC)C(=O)O)CC[C@@H]1C)[C@H]1O[C@]2(C=C[C@@H](NC(=O)OCCOc3ccccc3)[C@]3(CC[C@@](C)([C@H]4CC[C@](O)(CC)[C@H](C)O4)O3)O2)[C@H](C)C[C@@H]1C [FLC-00460-1•Na]	17.6	92.8	130	13.6	282	309	94.4	0.98	5.3	0.7	6.8	0.3	50.0	1.86	0.33	
